Assay results published in patent publication US5399588A, “Naphthalenylmethyl cycloalkenone acetic acids and analogs thereof useful as aldose reductase inhibitors” (American Home Products Corporation, priority 1993, dated 1995).
One block for each compound: values may come before it.

How the values were obtained:
[1] = target: T1, bovine lens aldose reductase (Bos taurus, UniProt P16116); assay: In vitro Inhibition of Aldose Reductase in the Bovine Lens; type: biochemical; conditions: DL-glyceraldehyde as substrate; for inhibition at 0.04 µM: 4 × 10^-8 M; for inhibition at 10 µM: 10^-5 M; for inhibition at 1 µM: 10^-6 M
T1 construct: in the preparation of the enzyme from bovine lens; from tissue; host or cells: bovine lens
Procedure: II. In vitro Inhibition of Aldose Reductase in the Bovine Lens
The aldose reductase inhibiting effects of the compounds of formula (I) were also tested by employing an in vitro testing procedure similar to that described by S. Hayman and J. H. Kinoshita, J. Biol. Chem., 240, 877 (1965) wherein the ability of the invention compounds to inhibit bovine lens aldose reductase with DL-glyceraldehyde as the substrate was determined. In the present case the procedure of Hayman and Kinoshita was modified in that the final chromatography step was omitted in the preparation of the enzyme from bovine lens.

aldose reductase = assay: In vivo Inhibition of Aldose Reductase in Galactosemic Rats; parameters: species or system male rats, Sprague-Dawley strain; conditions: four days, polyol accumulation
Text: I. In vivo Inhibition of Aldose Reductase in Galactosemic Rats
The aldose reductase inhibiting property of the compounds of this invention and the utilization of the compounds in preventing, diminishing and alleviating diabetic complications are demonstrable in experiments using galactosemic rats, see Dvornik et al., Science, 182, 1146 (1973).
(a) Four or more groups of six male rats, 50-70 g, Sprague-Dawley strain, were used. The first group, the control group, was fed a mixture of laboratory chow (rodent Laboratory Chow, Purina) and glucose at 20% (w/w %) concentration. An untreated galactosemic group was fed a similar diet in which galactose was substituted for glucose. The third group was fed a diet prepared by mixing a given amount of the test compound with the galactose containing diet. The concentration of galactose in the diet of the treated groups was the same as that for the untreated galactosemic group.
(b) After four days, the animals were killed by euthanization. Both the lens and sciatic nerve were removed, weighed and stored frozen for polyol determination.
(c) The polyol determination was performed by a modification of the procedure of M. Kraml and L. Cosyns, Clin. Biochem., 2, 373 (1969). Only two minor reagent changes were made: (a) the rinsing mixture was an aqueous 5% (w/v) trichloroacetic acid solution and (b) the stock solution was prepared by dissolving 25 mg of dulcitol in 100 mL of an aqueous trichloroacetic acid solution. [N.B.: For each experiment the average value found in the tissue from rats fed the glucose diet was subtracted from the individual values found in the corresponding tissue in galactose-fed rats to obtain the amount of polyol accumulated].

[2] = 100 mg/kg/day in galactose-containing diet

inhibition at 0.04 µM [1]: 78%
Compound: O=C(O)CC1=C(Cc2ccc3c(Br)cccc3c2)C(=O)CCC1 [Example 1, [2-(5-Bromo-naphthalen-2-ylmethyl)-3-oxo-cyclohex-1-enyl]-acetic acid]
% Inhibition of aldose reductase (aldose reductase; [2]): 68%

inhibition at 0.1 µM ([1]; 10^-7 M): 50%
Compound: COc1ccc2cc(CC3=C(CC(=O)O)CCCC3=O)ccc2c1Br [Example 2, [2-(5-bromo-6-methoxy-naphthalen-2-ylmethyl)-3-oxocyclohex-1-enyl] acetic acid]
% Inhibition of aldose reductase (aldose reductase; [2]): 71%

inhibition at 0.04 µM [1]: 79%
Compound: O=C(O)CC1=C(Cc2ccc3c(Cl)cccc3c2)C(=O)CCC1 [Example 3, [2-(5-chloro-naphthalen-2-ylmethyl)-3-oxo-cyclohex-1-enyl]-acetic acid]
% Inhibition of aldose reductase (aldose reductase; 105 mg/kg/day in galactose-containing diet): 52%
% Inhibition of aldose reductase (aldose reductase; 202 mg/kg/day in galactose-containing diet): 73%

inhibition at 10 µM [1]: 27%
Compound: COC(=O)NC(=O)CC1=C(Cc2ccc3c(Br)cccc3c2)C(=O)CCC1 [Example 5, [[2-(5-bromo-naphthalen-2-ylmethyl)-3-oxo-cyclohex-1-enyl]acetyl]carbamic acid methyl ester]
% Inhibition of aldose reductase (aldose reductase; [2]): 45%

inhibition at 1 µM [1]: 41%
Compound: O=C(O)CC1=C(Cc2ccc3ccccc3c2)C(=O)CCC1 [Example 7, [2-(naphthalen-2-ylmethyl)-3-oxo-cyclohex-1-enyl]-acetic acid]

The remaining lines, values behind:

Compound: O=C(O)CC1=C(Cc2ccc3c(Cl)cccc3c2)C(=O)CC1 [Example 4, [2-(5-chloro-naphthalen-2-ylmethyl)-3-oxo-cyclopen-1-enyl]-acetic acid]
inhibition at 0.04 µM [1]: 62%
% Inhibition of aldose reductase (aldose reductase; [2]): 37%

Compound: COC(=O)NC(=O)CC1=C(Cc2ccc3c(Cl)cccc3c2)C(=O)CC1 [Example 6, [2-[2-(5-chloro-naphthalen-2-ylmethyl)-3-oxo-cyclopent-1-enyl]-acetyl]carbamic acid methyl ester]
inhibition at 10 µM [1]: 19%

Compound: O=C(O)COC1=C(Cc2ccc3c(Cl)cccc3c2)C(=O)CCC1 [Example 8, [[2-(5-chloro-naphthalen-2-ylmethyl)-3-oxo-1-cyclohex-1-enyl]oxy]acetic acid]
inhibition at 0.04 µM [1]: 81%

Compound: O=C(O)COC1=C(Cc2ccc3ccccc3c2)C(=O)CCC1 [Example 9, [[2-(naphthalen-2-ylmethyl)-3-oxo-1-cyclohex-1-enyl]oxy]acetic acid]
inhibition at 1 µM [1]: 87%

Compound: O=C(O)COC1=C(Cc2ccc3c(Br)cccc3c2)C(=O)CCC1 [Example 10, [[2-(5-bromo-naphthalen-2-ylmethyl)-3-oxo-cyclohex-1-enyl]oxy]-acetic acid]
inhibition at 0.04 µM [1]: 86%

Compound: O=C(O)COC1=C(Cc2ccc3c(Cl)cccc3c2)C(=O)CC1 [Example 11, [[2-(5-chloro-naphthalen-2-ylmethyl)-3-oxo-cyclopent-1-enyl]oxy]-acetic acid]
inhibition at 0.04 µM [1]: 70%

Compound: O=C(O)COC1=C(Cc2ccc3ccccc3c2)C(=O)CC1 [Example 12, [[2-(2-Naphthalen-2-ylmethyl)-3-oxo-cyclopent-1-enyl]oxy]-acetic acid]
inhibition at 1 µM [1]: 61%

Compound: COc1ccc2c(CC3=C(CC(=O)O)CCCC3=O)cccc2c1C(F)(F)F [Example 13, [2-(6-methoxy-5-trifluoromethyl-naphthalen-1-ylmethyl)-3-oxo-cyclohex-1-enyl]-acetic acid]
inhibition at 10 µM [1]: 51%

Compound: COc1ccc2c(CC3=C(CC(=O)O)CCC3=O)cccc2c1C(F)(F)F [Example 14, [2-(6-Methoxy-5-trifluoromethyl-naphthalen-1-ylmethyl)-3-oxo-cyclopent-1-enyl]-acetic acid]
inhibition at 10 µM [1]: 84%
